In patent US20200270216A1, “COMPOSITIONS AND METHODS FOR INHIBITING N-SMASE2” (The Regents of the University of California, priority 2017, published 2020):

Key:
Format in all cases: cell-based
[1] = tested on: P2-seeded tau biosensor cells; assay: EV purification and characterization (immunoblot of exosome markers, nanoparticle tracking analysis); conditions: 50 μM, 48 hours, nanoparticle tracking analysis
From the text: Extracellular vesicles (EVs) were purified from the cell culture medium using Exo-Quick-TC exosome purification kit (SBI, EXOTC10A-1) according to the manufacturing instructions. Immunoblot analysis of the EV fractions was done by 10-20% Tris-Glycine gel in non-reduced conditions, transferred to PVDF membrane and probed with antibodies against CD63 (ThermoFisher, 10628D), followed by HRP-conjugated secondary antibodies. Chemiluminescent signals were obtained with Super Signal West Femto substrate (Thermo Scientific Pierce 34,095) and detected using a BioSpectrum 600 imaging system and quantified using VisionWorks Version 6.6A software (UVP; Upland, Calif.). […] Inhibition of nSMase2 activity in cell extracts of confluent tau biosensors was confirmed by nSMase2 activity assay analogous to the one described in Example 2.
Our analysis confirmed that nSMase2 inhibitors suppress release of EVs from P2-seeded tau biosensor cells. […] EV samples purified from the same number of donor cells were analyzed per each group. Purified EVs were imaged by transmission electron microscopy (FIG. 5C). Size distribution of particles in the samples were assessed by nanoparticle tracking analysis (FIG. 5D). WB analysis for exosome markers also confirmed decrease in the exosome-specific marker expression (FIG. 5E).
Donor cells were grown in medium with exosome-depleted FBS (ThermoFisher, A2720803) for 48 hours with or without compounds, cell culture medium was collected and EVs purified using ExoQuick-TC kit (SBI biosciences). For quality control, small amounts of purified EVs were fixed on a copper mesh in glutaraldehyde/paraformaldehyde solution, stained with 2% uranyl acetate solution and imaged on a JEOL 100CX electron microscope at 29,000 times magnification. […] Chemiluminescent signals were obtained with Super Signal West Femto substrate (Thermo Scientific Pierce 34095) and detected using a BioSpectrum 600 imaging system and quantified using VisionWorks Version 6.6A software (UVP; Upland, Calif.).

[2] = tested on: HEK293T Tau RD P301S FRET biosensor cells; assay: D+R functional assay: tau seed transfer from P2-seeded donor cells to DiD-labeled recipient cells; conditions: D+R model, flow cytometry (FIG. 4C)
Description: The compounds disclosed herein were further evaluated in the functional assays (“D+R approach”). The assays were based on the use of two cell populations—donor cells (D) and recipient cells (R). Recipients express a specific signal upon accumulation of protein aggregates (for example, FRET signal). The D+R approach can be divided into four steps (FIG. 4A).
In step 1, donor and recipient cells were plated in separation and protein aggregation is induced in the donor cells by using tissue-derived or synthetic proteopathic seeds (“seeding”) or by chemical and/or genetic methods. In step 2, either donor cells or recipient cells were labeled with a lipophilic dye (or by other cell labeling technology) in order to be able to distinguish between donor and recipients cells after trypsinization and re-plating of the donor and recipient cells together in step 3 (R+D). Alternatively, donor and recipient cells were physically divided by a permeable support (for example, Transwell). In any scenario, the cells were connected through the media and they grow for 24-60 hours with or without addition of pre-selected compounds. Efficiency of proteopathic seed transmission from donor cells to recipient cells can be analyzed using microscopy, flow cytometry, or imaging flow cytometry. […] Treatment of the tau biosensor cells with tau seeds lead to RD aggregation, as a result, CFP and YFP molecules come into close proximity and a FRET signal can be generated in the CFP/YFP pair upon illumination. The far-red fluorescent, lipophilic carbocyanine dye, DiD, was used for labeling recipient cells. This dye allowed for distinguishing between the DiD-negative donor and the DiD positive recipient cells without interference with the CFP/YFP FRET signal. The representative images of DiD-negative FRETpositive donor cell seeded with P2-derived tau seeds), DiD-positive FRET-negative recipient cell (DiD-R), and DiD positive FRET-positive recipient cell, which were growing in the presence of P2-D (DiD-R/R+D) are presented at the FIG. 4B. […]

[3] = tested on: HEK293T Tau RD P301S FRET biosensor cells; assay: EV-mediated tau transfer assay
Description: For EV (extracellular vesicles)-mediated tau transfer assay, donor cells, transduced with AD-brain derived synaptosomal extracts (P2) or synthetic K18 seeds, were cultured for 48 hours in exosome-free medium with or without indicated concentration of tested compounds or DMSO for control, then medium was collected and EVs were purified using Exo-Quick-TC exosome purification kit (SBI, EXOTC10A-1) according to the manufacturing instructions. Naive recipient cells were plated at density 30,000 cells per well (96-well plates), grown for 12 hour in regular medium and then medium was exchanged to exosome-depleted medium, contained exosomes purified from donor cells (each well of recipients received amount of exosomes purified from one well of donor cells). Recipient cells were cultured in the presence of donor cell exosomes for 60 hrs. EV-mediated transfer assay scheme is presented at the FIG. 5A (right).
HEK293T Tau RD P301S FRET biosensor cells were growing in the Dulbecco's Modified Eagle's medium (DMEM) with higher glucose, 10% FBS, and 1% Penicillin-streptomycin at 37° C./5% CO2. Cells were plated in 10-sm dishes (3 million cells per dish in the regular medium) and grown for 12 hrs. Cells assigned to be donors were transduced with pulled synaptosomal (P2) extracts from AD cases using lipofectamine 2000, according to the published literature with minor modifications. We used 35 μg of pulled AD or control (NL) material per one 10-sm dish (TableS1). Defrosted P2 extracts were sonicated in water bath sonicator for 10 minutes, and diluted with Opti-MEM serum reduced medium to the final volume 200 μL per 10-sm dish. In a separate tube lipofectamine 2000 were combined with Opti-MEM medium, based on 25 μl of lipofectamine and 175 μL OptiMEM medium per each 10-sm dish, and incubated for 10 minutes at room temperature (RT). Each P2 or NL extract mix (200 μl) and prepared lipofectamine 2000 mix (200 μl) were combined and incubated for 20 min at RT. Each 10-sm dish with cell received 400 μl of the final liposomes in the total volume of medium 5 ml per dish. Cultures treated with equal amount of empty liposomes were used as an additional control group. Cells were incubated with liposomes for 20 hrs.
For “D+R” assay recipient cells were labeled with 1,1′-Dioctadecyl-3,3,3′,3′-tetramethylindodicarbocyanine (DiD) according to manufacturer's protocol (ThermoFisher V22887) on day 2. On day 3, donor cells were trypsinized (0.05% Trypsin/EDTA), washed with fresh exosome-free medium contained 10% of exosome-depleted FBS (ThermoFisher, A2720803). DiD-labeled recipient cells were also trypsinized and washed in exosome-free medium. […] FRET signal was detected using LSRII flow cytometer (BD biosciences). […]

O=C(/C=C/c1ccc(/C=C/C(=O)Nc2ccc(C3=NCCN3)cc2)cc1)Nc1ccc(C2=NCCN2)cc1 [GW4869]
release of EVs from P2-seeded donor cells [1]: released less EVs | tau seed transmission from donor cells to recipient cells [2]: restrained tau seed transmission from the donor cells to the recipient cells in a dose-dependent manner | EV-mediated transfer of tau to recipient cells ([3]; P2-seeded donor cells treated at 50 μM, 48 hours): decrease | reduction of EV-mediated transfer of tau seeds to naive recipient cells ([3]; inhibitor treatment of donor cells): 2.6 times
